Experiments:
Assay in all cases: NanoBRET CELLinib128
Format in all cases: binding
AURKA = molecular target: T1, AURKA (Homo sapiens, UniProt O14965); settings: 100% no effect, 0% complete tracer displacement, read-out: Tracer bound
T1 construct: Full-length kinase ORF (Promega, Madison, WI, USA) cloned in frame with a NanoLuc-vector was transfected into HEK293T cells; host or cells: HEK293T
Description: (§1) To get an impression about the binding strength of the PROTAC MA191 and the reference inhibitor MA68 to other kinases besides FLT3-ITD the binding on a kinase panel of further 128 representative protein kinases at 1 μM concentration was tested using the NanoBRET^TM cellular target engagement assay (CELLinib128 assay, CELLinib GmbH, Frankfurt, Germany). […] In none of the 128 kinases MA191 was able to displace the tracer (inhibitor) used by more than 50%, Table S1, Supplementary Information).
(§2) The CELLinib128 assay was performed by CELLinib GmbH, Frankfurt (Germany) as described previously. In brief: Full-length kinase ORF (Promega, Madison, WI, USA) cloned in frame with a NanoLuc-vector was transfected into HEK293T cells in Opti-MEM without phenol red (Life Technologies, Carlsbad, CA, USA) at a density of 2 × 10^5 cells/mL using FuGENE HD (Promega, E2312) and proteins were allowed to express for 20 h. For CDKs, where indicated below, an excess of an activator without an NLuc-fusion was cotransfected. […] The system was allowed to equilibrate at 37 °C for 2 h and 5% CO2 prior to BRET measurements. For PKCs, a chemical activator PMA was added in a final concentration of 1 µM was added together with test compounds and tracers (Promega, V1171). To measure BRET, NanoBRET^TM NanoGlo substrate + extracellular NanoLuc inhibitor (Promega, N2160) were added as per the manufacturer’s protocol, and filtered luminescence was measured (450 nm BP filter (donor) and 610 nm LP filter (acceptor)). For the 1-shot test compounds, data were normalized to the tracer control and the background control or control compound plateau and an average and SD were calculated. […] For the control compounds competitive displacement data were normalized to the tracer Ctrl and the background Ctrl and then plotted and fitted using GraphPad Prism 10 software using a normalized 3-parameter curve fit with the following equation: Y = 100/(1 + 10^X−LogIC50).

AURKB = molecular target: T2, AURKB (Homo sapiens, UniProt Q96GD4); settings: 100% no effect, 0% complete tracer displacement, read-out: Tracer bound
T2 construct: Full-length kinase ORF (Promega, Madison, WI, USA) cloned in frame with a NanoLuc-vector was transfected into HEK293T cells; host or cells: HEK293T
Description: as §1, §2

AURKC = molecular target: T3, AURKC (Homo sapiens, UniProt Q9UQB9); settings: 100% no effect, 0% complete tracer displacement, read-out: Tracer bound
T3 construct: Full-length kinase ORF (Promega, Madison, WI, USA) cloned in frame with a NanoLuc-vector was transfected into HEK293T cells; host or cells: HEK293T
Description: as §1, §2

CAMK2A = molecular target: T4, CAMK2A (Homo sapiens, UniProt Q9UQM7); settings: 100% no effect, 0% complete tracer displacement, read-out: Tracer bound
T4 construct: Full-length kinase ORF (Promega, Madison, WI, USA) cloned in frame with a NanoLuc-vector was transfected into HEK293T cells; host or cells: HEK293T
Description: as §1, §2

CDK18-CCNY = molecular target: T5, CDK18-CCNY (Homo sapiens, UniProt Q07002); settings: 100% no effect, 0% complete tracer displacement, read-out: Tracer bound
T5 construct: Full-length kinase ORF (Promega, Madison, WI, USA) cloned in frame with a NanoLuc-vector was transfected into HEK293T cells; host or cells: HEK293T
Description: as §1, §2

CDK20-CCNH = molecular target: T6, CDK20-CCNH (Homo sapiens, UniProt Q8IZL9); settings: 100% no effect, 0% complete tracer displacement, read-out: Tracer bound
T6 construct: Full-length kinase ORF (Promega, Madison, WI, USA) cloned in frame with a NanoLuc-vector was transfected into HEK293T cells; host or cells: HEK293T
Description: as §1, §2

CDK3-CCNE1 = molecular target: T7, CDK3-CCNE1 (Homo sapiens, UniProt Q00526); settings: 1 µM; 100% no effect, 0% complete tracer displacement
T7 construct: Full-length kinase ORF (Promega, Madison, WI, USA) cloned in frame with a NanoLuc-vector was transfected into HEK293T cells; host or cells: HEK293T
Description: as §1, §2

CDK4-CCND3 = molecular target: T8, CDK4-CCND3 (Homo sapiens, UniProt P11802); settings: 100% no effect, 0% complete tracer displacement, read-out: Tracer bound
T8 construct: Full-length kinase ORF (Promega, Madison, WI, USA) cloned in frame with a NanoLuc-vector was transfected into HEK293T cells; host or cells: HEK293T
Description: as §1, §2

CDK5-CDK5R2 = molecular target: T9, CDK5-CDK5R2 (Homo sapiens, UniProt Q00535); settings: 100% no effect, 0% complete tracer displacement, read-out: Tracer bound
T9 construct: Full-length kinase ORF (Promega, Madison, WI, USA) cloned in frame with a NanoLuc-vector was transfected into HEK293T cells; host or cells: HEK293T
Description: as §1, §2

ERN2 = molecular target: T10, ERN2 (Homo sapiens, UniProt Q76MJ5); settings: 100% no effect, 0% complete tracer displacement, read-out: Tracer bound
T10 construct: Full-length kinase ORF (Promega, Madison, WI, USA) cloned in frame with a NanoLuc-vector was transfected into HEK293T cells; host or cells: HEK293T
Description: as §1, §2

HUNK = molecular target: T11, HUNK (Homo sapiens, UniProt P57058); settings: 100% no effect, 0% complete tracer displacement, read-out: Tracer bound
T11 construct: Full-length kinase ORF (Promega, Madison, WI, USA) cloned in frame with a NanoLuc-vector was transfected into HEK293T cells; host or cells: HEK293T
Description: as §1, §2

IRAK3 = molecular target: T12, IRAK3 (Homo sapiens, UniProt Q9Y616); settings: 100% no effect, 0% complete tracer displacement, read-out: Tracer bound
T12 construct: Full-length kinase ORF (Promega, Madison, WI, USA) cloned in frame with a NanoLuc-vector was transfected into HEK293T cells; host or cells: HEK293T
Description: as §1, §2

MAP3K11 = molecular target: T13, MAP3K11 (Homo sapiens, UniProt Q16584); settings: 1 µM; 100% no effect, 0% complete tracer displacement
T13 construct: Full-length kinase ORF (Promega, Madison, WI, USA) cloned in frame with a NanoLuc-vector was transfected into HEK293T cells; host or cells: HEK293T
Description: as §1, §2

MAP4K1 = molecular target: T14, MAP4K1 (Homo sapiens, UniProt Q92918); settings: 100% no effect, 0% complete tracer displacement, read-out: Tracer bound
T14 construct: Full-length kinase ORF (Promega, Madison, WI, USA) cloned in frame with a NanoLuc-vector was transfected into HEK293T cells; host or cells: HEK293T
Description: as §1, §2

MAP4K5 = molecular target: T15, MAP4K5 (Homo sapiens, UniProt Q9Y4K4); settings: 100% no effect, 0% complete tracer displacement, read-out: Tracer bound
T15 construct: Full-length kinase ORF (Promega, Madison, WI, USA) cloned in frame with a NanoLuc-vector was transfected into HEK293T cells; host or cells: HEK293T
Description: as §1, §2

MAPK9 = molecular target: T16, MAPK9 (Homo sapiens, UniProt P45984); settings: 1 µM; 100% no effect, 0% complete tracer displacement
T16 construct: Full-length kinase ORF (Promega, Madison, WI, USA) cloned in frame with a NanoLuc-vector was transfected into HEK293T cells; host or cells: HEK293T
Description: as §1, §2

NUAK1 = molecular target: T17, NUAK1 (Homo sapiens, UniProt O60285); settings: 1 µM; 100% no effect, 0% complete tracer displacement
T17 construct: Full-length kinase ORF (Promega, Madison, WI, USA) cloned in frame with a NanoLuc-vector was transfected into HEK293T cells; host or cells: HEK293T
Description: as §1, §2

PRKAA1 = molecular target: T18, PRKAA1 (Homo sapiens, UniProt Q13131); settings: 100% no effect, 0% complete tracer displacement, read-out: Tracer bound
T18 construct: Full-length kinase ORF (Promega, Madison, WI, USA) cloned in frame with a NanoLuc-vector was transfected into HEK293T cells; host or cells: HEK293T
Description: as §1, §2

PRKACB = molecular target: T19, PRKACB (Homo sapiens, UniProt P22694); settings: 100% no effect, 0% complete tracer displacement, read-out: Tracer bound
T19 construct: Full-length kinase ORF (Promega, Madison, WI, USA) cloned in frame with a NanoLuc-vector was transfected into HEK293T cells; host or cells: HEK293T
Description: as §1, §2

RIOK2 = molecular target: T20, RIOK2 (Homo sapiens, UniProt Q9BVS4); settings: 100% no effect, 0% complete tracer displacement, read-out: Tracer bound
T20 construct: Full-length kinase ORF (Promega, Madison, WI, USA) cloned in frame with a NanoLuc-vector was transfected into HEK293T cells; host or cells: HEK293T
Description: as §1, §2

RPS6KA1 = molecular target: T21, RPS6KA1 (Homo sapiens, UniProt Q15418); settings: 100% no effect, 0% complete tracer displacement, read-out: Tracer bound
T21 construct: Full-length kinase ORF (Promega, Madison, WI, USA) cloned in frame with a NanoLuc-vector was transfected into HEK293T cells; host or cells: HEK293T
Description: as §1, §2

RPS6KA3 = molecular target: T22, RPS6KA3 (Homo sapiens, UniProt P51812); settings: 100% no effect, 0% complete tracer displacement, read-out: Tracer bound
T22 construct: Full-length kinase ORF (Promega, Madison, WI, USA) cloned in frame with a NanoLuc-vector was transfected into HEK293T cells; host or cells: HEK293T
Description: as §1, §2

SRMS = molecular target: T23, SRMS (Homo sapiens, UniProt Q9H3Y6); settings: 100% no effect, 0% complete tracer displacement, read-out: Tracer bound
T23 construct: Full-length kinase ORF (Promega, Madison, WI, USA) cloned in frame with a NanoLuc-vector was transfected into HEK293T cells; host or cells: HEK293T
Description: as §1, §2

STK33 = molecular target: T24, STK33 (Homo sapiens, UniProt Q9BYT3); settings: 100% no effect, 0% complete tracer displacement, read-out: Tracer bound
T24 construct: Full-length kinase ORF (Promega, Madison, WI, USA) cloned in frame with a NanoLuc-vector was transfected into HEK293T cells; host or cells: HEK293T
Description: as §1, §2

STK38L = molecular target: T25, STK38L (Homo sapiens, UniProt Q9Y2H1); settings: 100% no effect, 0% complete tracer displacement, read-out: Tracer bound
T25 construct: Full-length kinase ORF (Promega, Madison, WI, USA) cloned in frame with a NanoLuc-vector was transfected into HEK293T cells; host or cells: HEK293T
Description: as §1, §2

TBK1 = molecular target: T26, TBK1 (Homo sapiens, UniProt Q9UHD2); settings: 100% no effect, 0% complete tracer displacement, read-out: Tracer bound
T26 construct: Full-length kinase ORF (Promega, Madison, WI, USA) cloned in frame with a NanoLuc-vector was transfected into HEK293T cells; host or cells: HEK293T
Description: as §1, §2

TNK1 = molecular target: T27, TNK1 (Homo sapiens, UniProt Q13470); settings: 100% no effect, 0% complete tracer displacement, read-out: Tracer bound
T27 construct: Full-length kinase ORF (Promega, Madison, WI, USA) cloned in frame with a NanoLuc-vector; host or cells: HEK293T
Description: as §1, §2

TNNI3K = molecular target: T28, TNNI3K (Homo sapiens, UniProt Q59H18); settings: 100% no effect, 0% complete tracer displacement, read-out: Tracer bound
T28 construct: Full-length kinase ORF (Promega, Madison, WI, USA) cloned in frame with a NanoLuc-vector; host or cells: HEK293T
Description: as §1, §2

TRKA = molecular target: T29, TRKA (Homo sapiens, UniProt P04629); settings: 100% no effect, 0% complete tracer displacement, read-out: Tracer bound
T29 construct: Full-length kinase ORF (Promega, Madison, WI, USA) cloned in frame with a NanoLuc-vector; host or cells: HEK293T
Description: as §1, §2

ULK2 = molecular target: T30, ULK2 (Homo sapiens, UniProt Q8IYT8); settings: 100% no effect, 0% complete tracer displacement, read-out: Tracer bound
T30 construct: Full-length kinase ORF (Promega, Madison, WI, USA) cloned in frame with a NanoLuc-vector; host or cells: HEK293T
Description: as §1, §2

T7 sequence (Q00526 whole entry): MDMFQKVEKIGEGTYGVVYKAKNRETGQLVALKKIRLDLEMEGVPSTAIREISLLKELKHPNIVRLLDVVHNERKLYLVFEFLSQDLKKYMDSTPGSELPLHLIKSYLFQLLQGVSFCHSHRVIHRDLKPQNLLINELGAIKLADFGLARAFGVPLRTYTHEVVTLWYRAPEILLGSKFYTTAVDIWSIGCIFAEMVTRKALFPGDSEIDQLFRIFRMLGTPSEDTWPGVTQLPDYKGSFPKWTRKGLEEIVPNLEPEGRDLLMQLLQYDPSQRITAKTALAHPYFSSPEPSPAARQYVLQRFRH
T7 sequence (P24864 whole entry partner): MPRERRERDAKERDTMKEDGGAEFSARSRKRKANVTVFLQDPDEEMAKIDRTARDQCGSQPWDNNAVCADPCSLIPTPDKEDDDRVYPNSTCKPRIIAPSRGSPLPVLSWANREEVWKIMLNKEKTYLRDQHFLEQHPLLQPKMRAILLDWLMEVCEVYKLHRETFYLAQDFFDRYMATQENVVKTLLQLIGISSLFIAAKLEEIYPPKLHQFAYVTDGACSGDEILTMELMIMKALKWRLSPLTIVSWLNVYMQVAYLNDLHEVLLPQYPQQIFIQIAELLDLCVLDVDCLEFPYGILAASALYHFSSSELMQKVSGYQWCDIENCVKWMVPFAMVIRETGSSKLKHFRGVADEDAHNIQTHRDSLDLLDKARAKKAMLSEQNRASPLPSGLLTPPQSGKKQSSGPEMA
T12 sequence (Q9Y616 whole entry): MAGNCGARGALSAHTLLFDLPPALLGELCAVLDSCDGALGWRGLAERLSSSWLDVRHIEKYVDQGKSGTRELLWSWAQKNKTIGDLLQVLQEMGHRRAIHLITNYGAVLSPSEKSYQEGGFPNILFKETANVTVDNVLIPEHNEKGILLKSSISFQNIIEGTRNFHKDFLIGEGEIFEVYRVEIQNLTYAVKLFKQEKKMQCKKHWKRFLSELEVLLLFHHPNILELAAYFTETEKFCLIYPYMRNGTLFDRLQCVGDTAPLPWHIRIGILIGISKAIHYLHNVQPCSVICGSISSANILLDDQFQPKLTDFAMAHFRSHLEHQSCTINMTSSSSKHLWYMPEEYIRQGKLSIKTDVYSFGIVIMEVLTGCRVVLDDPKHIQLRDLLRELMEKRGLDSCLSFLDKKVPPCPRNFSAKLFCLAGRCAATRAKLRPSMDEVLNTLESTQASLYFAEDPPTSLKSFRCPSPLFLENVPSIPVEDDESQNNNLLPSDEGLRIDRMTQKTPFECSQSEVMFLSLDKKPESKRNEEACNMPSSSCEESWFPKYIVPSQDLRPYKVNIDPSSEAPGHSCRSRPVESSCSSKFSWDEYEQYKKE
T16 sequence (P45984 whole entry): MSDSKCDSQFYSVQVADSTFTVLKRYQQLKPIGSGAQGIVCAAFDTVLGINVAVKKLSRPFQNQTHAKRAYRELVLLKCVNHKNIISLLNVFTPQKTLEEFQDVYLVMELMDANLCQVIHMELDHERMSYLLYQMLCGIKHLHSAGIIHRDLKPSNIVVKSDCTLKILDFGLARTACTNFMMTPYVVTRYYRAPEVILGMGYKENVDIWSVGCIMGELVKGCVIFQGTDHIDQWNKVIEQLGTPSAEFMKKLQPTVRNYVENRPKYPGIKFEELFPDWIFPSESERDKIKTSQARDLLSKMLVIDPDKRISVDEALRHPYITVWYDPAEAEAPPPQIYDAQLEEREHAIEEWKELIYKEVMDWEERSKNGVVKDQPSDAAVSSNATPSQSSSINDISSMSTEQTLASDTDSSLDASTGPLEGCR
T21 sequence (Q15418 whole entry): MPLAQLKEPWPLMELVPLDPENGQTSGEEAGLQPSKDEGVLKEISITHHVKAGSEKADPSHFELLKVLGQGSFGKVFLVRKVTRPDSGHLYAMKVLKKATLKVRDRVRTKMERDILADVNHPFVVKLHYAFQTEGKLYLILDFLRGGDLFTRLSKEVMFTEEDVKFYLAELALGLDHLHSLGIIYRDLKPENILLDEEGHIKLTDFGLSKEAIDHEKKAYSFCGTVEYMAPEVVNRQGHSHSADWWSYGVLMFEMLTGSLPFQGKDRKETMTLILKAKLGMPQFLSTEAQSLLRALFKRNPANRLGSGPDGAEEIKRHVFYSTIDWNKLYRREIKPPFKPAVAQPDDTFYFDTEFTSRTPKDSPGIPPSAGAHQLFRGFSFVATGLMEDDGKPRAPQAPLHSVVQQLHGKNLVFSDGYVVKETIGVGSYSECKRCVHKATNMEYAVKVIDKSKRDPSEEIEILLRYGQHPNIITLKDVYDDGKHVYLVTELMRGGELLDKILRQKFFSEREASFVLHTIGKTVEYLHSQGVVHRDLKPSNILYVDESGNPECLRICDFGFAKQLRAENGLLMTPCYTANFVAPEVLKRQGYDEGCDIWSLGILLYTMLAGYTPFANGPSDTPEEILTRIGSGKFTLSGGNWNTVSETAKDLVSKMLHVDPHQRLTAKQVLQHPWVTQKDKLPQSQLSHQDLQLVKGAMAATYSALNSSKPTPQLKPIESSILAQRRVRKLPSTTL
T28 sequence (Q59H18 whole entry): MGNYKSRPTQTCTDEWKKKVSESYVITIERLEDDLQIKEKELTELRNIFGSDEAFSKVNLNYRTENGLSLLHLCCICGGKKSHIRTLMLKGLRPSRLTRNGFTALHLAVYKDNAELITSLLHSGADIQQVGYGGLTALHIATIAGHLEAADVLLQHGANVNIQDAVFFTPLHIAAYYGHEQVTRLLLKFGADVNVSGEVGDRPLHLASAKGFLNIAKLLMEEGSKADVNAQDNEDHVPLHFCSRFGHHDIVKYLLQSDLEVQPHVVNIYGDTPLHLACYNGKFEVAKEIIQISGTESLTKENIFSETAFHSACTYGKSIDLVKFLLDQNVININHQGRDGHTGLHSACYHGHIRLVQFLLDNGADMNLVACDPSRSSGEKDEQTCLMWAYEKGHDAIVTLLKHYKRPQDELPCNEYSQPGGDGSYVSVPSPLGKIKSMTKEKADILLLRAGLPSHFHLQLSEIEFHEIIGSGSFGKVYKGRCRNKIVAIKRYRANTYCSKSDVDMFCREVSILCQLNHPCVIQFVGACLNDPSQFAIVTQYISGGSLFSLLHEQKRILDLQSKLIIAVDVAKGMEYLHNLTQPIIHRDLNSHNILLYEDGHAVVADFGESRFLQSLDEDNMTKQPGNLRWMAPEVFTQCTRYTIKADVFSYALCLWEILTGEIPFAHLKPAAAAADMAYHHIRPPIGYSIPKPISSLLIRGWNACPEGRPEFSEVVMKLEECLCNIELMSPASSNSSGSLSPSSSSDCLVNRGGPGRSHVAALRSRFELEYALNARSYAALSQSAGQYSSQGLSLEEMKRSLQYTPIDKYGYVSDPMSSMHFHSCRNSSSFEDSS
T5 sequence (Q07002 whole entry): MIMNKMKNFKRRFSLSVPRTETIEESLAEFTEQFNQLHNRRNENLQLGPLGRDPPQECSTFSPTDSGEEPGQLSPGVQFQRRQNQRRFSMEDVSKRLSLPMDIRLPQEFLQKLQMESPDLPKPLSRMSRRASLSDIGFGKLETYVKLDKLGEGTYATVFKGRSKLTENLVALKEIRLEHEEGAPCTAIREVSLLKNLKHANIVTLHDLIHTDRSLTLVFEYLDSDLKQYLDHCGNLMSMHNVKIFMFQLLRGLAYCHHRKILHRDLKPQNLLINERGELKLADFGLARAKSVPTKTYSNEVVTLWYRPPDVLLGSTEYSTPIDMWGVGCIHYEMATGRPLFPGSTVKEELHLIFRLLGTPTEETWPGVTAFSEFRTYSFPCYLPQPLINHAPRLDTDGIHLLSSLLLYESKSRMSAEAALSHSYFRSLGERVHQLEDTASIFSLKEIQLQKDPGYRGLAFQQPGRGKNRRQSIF
T5 sequence (Q8ND76 whole entry partner): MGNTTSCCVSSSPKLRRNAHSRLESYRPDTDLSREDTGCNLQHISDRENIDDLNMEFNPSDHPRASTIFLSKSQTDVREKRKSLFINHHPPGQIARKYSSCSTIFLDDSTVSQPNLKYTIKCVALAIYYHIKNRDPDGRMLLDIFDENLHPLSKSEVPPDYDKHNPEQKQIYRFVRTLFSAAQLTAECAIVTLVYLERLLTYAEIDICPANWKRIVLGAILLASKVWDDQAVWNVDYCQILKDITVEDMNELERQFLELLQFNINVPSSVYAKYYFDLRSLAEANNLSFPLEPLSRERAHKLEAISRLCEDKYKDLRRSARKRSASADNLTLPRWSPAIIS
T11 sequence (P57058 whole entry): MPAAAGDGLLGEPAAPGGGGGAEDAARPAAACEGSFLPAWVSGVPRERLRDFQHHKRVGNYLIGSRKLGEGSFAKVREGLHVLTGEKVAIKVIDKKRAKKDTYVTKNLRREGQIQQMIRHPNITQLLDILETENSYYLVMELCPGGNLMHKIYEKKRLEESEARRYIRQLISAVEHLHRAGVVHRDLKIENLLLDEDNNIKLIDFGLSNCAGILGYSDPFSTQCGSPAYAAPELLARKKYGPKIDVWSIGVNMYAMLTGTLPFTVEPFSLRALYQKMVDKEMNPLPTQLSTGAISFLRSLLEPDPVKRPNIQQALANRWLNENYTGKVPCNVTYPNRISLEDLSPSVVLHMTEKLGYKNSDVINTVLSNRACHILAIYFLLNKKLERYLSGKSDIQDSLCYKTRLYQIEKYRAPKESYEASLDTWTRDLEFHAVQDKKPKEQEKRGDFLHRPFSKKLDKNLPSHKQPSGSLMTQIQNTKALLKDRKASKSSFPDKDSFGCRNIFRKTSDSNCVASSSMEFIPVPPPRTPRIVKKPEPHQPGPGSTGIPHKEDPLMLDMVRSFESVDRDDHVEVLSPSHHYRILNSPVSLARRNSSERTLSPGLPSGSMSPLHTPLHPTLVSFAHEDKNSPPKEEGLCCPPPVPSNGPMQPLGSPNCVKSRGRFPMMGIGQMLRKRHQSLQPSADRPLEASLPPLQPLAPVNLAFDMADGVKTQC

Structure (SMILES): CNC(=O)c1cc(Oc2ccc(NC(=O)Nc3cc(C(C)(C)C)on3)cc2)ccn1 [MA68, reference compound]
- remaining activity at 1 µM (AURKA): 120%
- remaining activity at 1 µM (AURKB): 76.4%
- remaining activity at 1 µM (AURKC): 102%
- remaining activity at 1 µM (CAMK2A): 102%
- remaining activity at 1 µM (CDK18-CCNY): 28.6%
- remaining activity at 1 µM (CDK20-CCNH): 93.3%
- Tracer bound (CDK3-CCNE1): 81.0%
- remaining activity at 1 µM (CDK4-CCND3): 29.7%
- remaining activity at 1 µM (CDK5-CDK5R2): 86.1%
- remaining activity at 1 µM (ERN2): 120%
- remaining activity at 1 µM (HUNK): 88.2%
- remaining activity at 1 µM (IRAK3): 120%
- Tracer bound (MAP3K11): 109.2%
- remaining activity at 1 µM (MAP4K1): 101%
- remaining activity at 1 µM (MAP4K5): 96.3%
- Tracer bound (MAPK9): 94.9%
- Tracer bound (NUAK1): 120.0%
- remaining activity at 1 µM (PRKAA1): 114%
- remaining activity at 1 µM (PRKACB): 99.6%
- remaining activity at 1 µM (RIOK2): 109%
- remaining activity at 1 µM (RPS6KA1): 108%
- remaining activity at 1 µM (RPS6KA3): 118%
- remaining activity at 1 µM (SRMS): 94.4%
- remaining activity at 1 µM (STK33): 94.8%
- remaining activity at 1 µM (STK38L): 90%
- remaining activity at 1 µM (TBK1): 107%
- remaining activity at 1 µM (TNK1): 114%
- remaining activity at 1 µM (TNNI3K): 15.1%
- remaining activity at 1 µM (TRKA): 28.6%
- remaining activity at 1 µM (ULK2): 91.7%

— paper PMC13210772, “Dual FLT3/MAPK14 Proteolysis-Targeting Chimera (PROTAC) Induces Potent Acute Myeloid Leukemia Cell Death” (Pharmaceuticals, 2026)
